For this data set the following is noted: 101 kPa, Liquid; for viscosity: Capillary tube (Ostwald / Ubbelohde) method; for mass density: Vibrating tube method.

Several values for one entry are separate records, joined by “and”; a condition that tells them apart may be missing. Equal entries are not always repeated. Numbers after ± are expanded uncertainties.

The record followed here is the NIST ThermoML archive (doi:10.1021/je900194v).

With `Cc1cccc(C)c1` [1,3-dimethylbenzene], the viscosity (usually the internal friction of a fluid under shear) (298.15 K) was 0.587 ± 0.007 mPa·s, the viscosity (308.15 K) is recorded as 0.524 ± 0.007 mPa·s and the viscosity (318.15 K) is listed as 0.471 ± 0.007 mPa·s. Moreover, the mass density (usually mass per unit of volume) is, setting by setting: (298.15 K) 859.83 ± 0.18 kg/m3; (308.15 K) 851.19 ± 0.18 kg/m3; (318.15 K) 842.49 ± 0.18 kg/m3.
In the case of `Cc1ccc(C)cc1` [1,4-dimethylbenzene], the viscosity is 0.609 ± 0.007 mPa·s (298.15 K), 0.541 ± 0.007 mPa·s (308.15 K) and 0.484 ± 0.007 mPa·s (318.15 K). Further, the mass density (298.15 K) is recorded as 856.68 ± 0.14 kg/m3, the mass density (308.15 K) is 847.96 ± 0.14 kg/m3 and the mass density (318.15 K) was 839.2 ± 0.15 kg/m3.
For `c1ccccc1` [benzene], the viscosity turned out to be 0.603 ± 0.007 mPa·s (298.15 K), 0.533 ± 0.007 mPa·s (308.15 K) and 0.466 ± 0.007 mPa·s (318.15 K). The mass density (298.15 K) was found to be 873.61 ± 0.15 kg/m3, the mass density (308.15 K) is 862.28 ± 0.15 kg/m3 and the mass density (318.15 K) is 852.08 ± 0.15 kg/m3.
Regarding `COC(=O)CCCCl` [methyl 4-chlorobutanoate], the viscosity by setting is: (298.15 K) 1.519 ± 0.01 mPa·s; (308.15 K) 1.279 ± 0.009 mPa·s; (318.15 K) 1.089 ± 0.009 mPa·s. In addition, the mass density was 1116.24 ± 0.13 kg/m3 (298.15 K); 1105.22 ± 0.13 kg/m3 and 1105.23 ± 0.13 kg/m3 (308.15 K); 1094.13 ± 0.12 kg/m3 (318.15 K).
Take `Cc1ccccc1` [toluene]: the mass density by setting is: (298.15 K) 862.18 ± 0.19 kg/m3; (308.15 K) 852.81 ± 0.19 kg/m3; (318.15 K) 843.4 ± 0.19 kg/m3. In addition, the viscosity is, setting by setting: (308.15 K) 0.499 ± 0.007 mPa·s; (318.15 K) 0.446 ± 0.007 mPa·s.
